Test results published in ChEMBL document CHEMBL5244223, “l,8-Naphthalimide based DNA intercalators and anticancer agents. A systematic review from 2007 to 2017” (Eur J Med Chem, 2018).
In brackets after ≈: the same amount, converted by molar mass.

Tests used:
Pseudomonas aeruginosa = experiment: Antibacterial activity against Pseudomonas aeruginosa MTCC 741 assessed as inhibition of bacterial growth by agar well diffusion assay; format: functional
Staphylococcus aureus = experiment: Antibacterial activity against Staphylococcus aureus MTCC 96 assessed as inhibition of bacterial growth by agar well diffusion assay; format: functional
Escherichia coli = experiment: Antibacterial activity against Escherichia coli MTCC 443 assessed as inhibition of bacterial growth by agar well diffusion assay; format: functional
[1] = system: Staphylococcus epidermidis; experiment: Antibacterial activity against Staphylococcus epidermidis MTCC 435 assessed as inhibition of bacterial growth by agar well diffusion assay; format: functional
Calf thymus DNA = experiment: Binding affinity to calf thymus DNA assessed as DNA intercalation by measuring change in melting temperature by thermal denaturation assay; format: nucleic-acid assay; details: Bos taurus
HCT-116 = experiment: Antiproliferative activity against human HCT-116 cells assessed as inhibition of cell proliferation incubated for 48 hrs by MTT assay; format: functional, cell-based; details: HCT-116, 48 h
[2] = Antiproliferative activity against human QSG7701 cells assessed as inhibition of cell proliferation incubated for 48 hrs by MTT assay; format: toxicity, cell-based
K562 [3] = experiment: Antiproliferative activity against human K562 cells assessed as inhibition of cell proliferation incubated for 48 hrs by MTT assay; format: functional, cell-based; details: K562, 48 h
MDA-MB-231 = experiment: Antiproliferative activity against human MDA-MB-231 cells assessed as inhibition of cell proliferation incubated for 48 hrs by MTT assay; format: functional, cell-based; details: MDA-MB-231, 48 h
SMMC-7721 = experiment: Antiproliferative activity against human SMMC-7721 cells assessed as inhibition of cell proliferation incubated for 48 hrs by MTT assay; format: functional, cell-based; details: SMMC-7721, 48 h
HepG2 = experiment: Antiproliferative activity against human HepG2 cells assessed as inhibition of cell proliferation incubated for 48 hrs by MTT assay; format: functional, cell-based; details: HepG2, 48 h
HeLa = experiment: Cytotoxicity against human HeLa cells assessed as inhibition of cell growth incubated for 48 hrs by MTT assay; format: functional, cell-based
A549 = experiment: Cytotoxicity against human A549 cells assessed as inhibition of cell growth incubated for 48 hrs by MTT assay; format: functional, cell-based; details: A549, 48 h
K562 [4] = experiment: Cytotoxicity against human K562 cells assessed as inhibition of cell growth incubated for 48 hrs by MTT assay; format: functional, cell-based; details: K562, 48 h

Compound	MIC (Pseudomonas aeruginosa)	MIC (Staphylococcus aureus)	MIC (Escherichia coli)	MIC [1]	IC50 (HCT-116)	IC50 at 48 h [2]	IC50 (K562 [3])	IC50 (MDA-MB-231)	IC50 (SMMC-7721)	IC50 (HepG2)	further results
O=C(O)c1cn(C2CC2)c2cc(N3CCNCC3)c(F)cc2c1=O [CIPROFLOXACIN]	18.8 µg/mL (≈ 56.6 µM)	18.8 µg/mL (≈ 56.6 µM)	18.8 µg/mL (≈ 56.6 µM)	18.8 µg/mL (≈ 56.6 µM)	–	–	–	–	–	–	–
O=C1c2ccc3c4c(ccc(c24)C(=O)N1c1nc(-c2cc4cc(Br)ccc4oc2=O)cs1)C(=O)N(c1nc(-c2cc4cc(Br)ccc4oc2=O)cs1)C3=O	18.8 µg/mL (≈ 21.3 µM)	18.8 µg/mL (≈ 21.3 µM)	18.8 µg/mL (≈ 21.3 µM)	18.8 µg/mL (≈ 21.3 µM)	–	–	–	–	–	–	ΔTm (Calf thymus DNA): 0.1 °C
CCCCNC(=O)Nc1cc2c3c(cccc3c1)C(=O)N(CCN(C)C)C2=O	–	–	–	–	> 50 µM	> 50 µM	> 50 µM	> 50 µM	> 50 µM	> 50 µM	–
CCCCCCCNC(=O)Nc1cc2c3c(cccc3c1)C(=O)N(CCN(C)C)C2=O	–	–	–	–	> 50 µM	> 50 µM	> 50 µM	> 50 µM	> 50 µM	> 50 µM	–
O=C1c2cccc3cccc(c23)C(=O)N1c1nc(-c2cc3cc(Br)ccc3oc2=O)cs1	18.8 µg/mL (≈ 37.3 µM)	18.8 µg/mL (≈ 37.3 µM)	18.8 µg/mL (≈ 37.3 µM)	18.8 µg/mL (≈ 37.3 µM)	–	–	–	–	–	–	ΔTm (Calf thymus DNA): 0.1 °C
CN(C)CCN1C(=O)c2cccc3cc(NC(=O)CCCCCN)cc(c23)C1=O	–	–	–	–	–	–	–	–	–	–	IC50 (HeLa): 21.5 µM; IC50 (A549): 4.7 µM; IC50 (K562 [4]): 8.5 µM
O=C1c2ccc3c4c(ccc(c24)C(=O)N1c1nc(-c2cc4cc(Br)cc(Br)c4oc2=O)cs1)C(=O)N(c1nc(-c2cc4cc(Br)cc(Br)c4oc2=O)cs1)C3=O	18.8 µg/mL (≈ 18.1 µM)	18.8 µg/mL (≈ 18.1 µM)	18.8 µg/mL (≈ 18.1 µM)	18.8 µg/mL (≈ 18.1 µM)	–	–	–	–	–	–	ΔTm (Calf thymus DNA): 0.1 °C
CN(C)CCN1C(=O)c2cccc3cc(NC(=O)CCNC(=O)C(Cl)Cl)cc(c23)C1=O	–	–	–	–	–	–	–	–	–	–	IC50 (HeLa): 21.5 µM; IC50 (A549): 4.7 µM; IC50 (K562 [4]): 8.5 µM
CN(C)CCN1C(=O)c2cccc3cc(NC(=O)CNCCCN)cc(c23)C1=O	–	–	–	–	6.42 µM	6.42 µM	6.42 µM	6.42 µM	6.42 µM	6.42 µM	–
CN(C)CCN1C(=O)c2cccc3cc(NC(=O)CCCN)cc(c23)C1=O	–	–	–	–	–	–	–	–	–	–	IC50 (HeLa): 21.5 µM; IC50 (A549): 4.7 µM; IC50 (K562 [4]): 8.5 µM
CN(C)CCN1C(=O)c2cccc3cc(NC(=O)CCN)cc(c23)C1=O	–	–	–	–	–	–	–	–	–	–	IC50 (HeLa): 21.5 µM; IC50 (A549): 4.7 µM; IC50 (K562 [4]): 8.5 µM
CN(C)CCN1C(=O)c2cccc3cc(NC(=O)CNCCCNCCCCNCCCN)cc(c23)C1=O	–	–	–	–	6.42 µM	6.42 µM	6.42 µM	6.42 µM	6.42 µM	6.42 µM	–
CN(C)CCN1C(=O)c2cccc3cc(NC(=O)CNCCCNCCCNCCCN)cc(c23)C1=O	–	–	–	–	6.42 µM	6.42 µM	6.42 µM	6.42 µM	6.42 µM	6.42 µM	–
O=C1c2cccc3cccc(c23)C(=O)N1c1nc(-c2cc3cc(Cl)ccc3oc2=O)cs1	18.8 µg/mL (≈ 40.9 µM)	18.8 µg/mL (≈ 40.9 µM)	18.8 µg/mL (≈ 40.9 µM)	18.8 µg/mL (≈ 40.9 µM)	–	–	–	–	–	–	ΔTm (Calf thymus DNA): 0.1 °C
COc1cccc2cc(-c3csc(N4C(=O)c5cccc6cccc(c56)C4=O)n3)c(=O)oc12	18.8 µg/mL (≈ 41.3 µM)	18.8 µg/mL (≈ 41.3 µM)	18.8 µg/mL (≈ 41.3 µM)	18.8 µg/mL (≈ 41.3 µM)	–	–	–	–	–	–	ΔTm (Calf thymus DNA): 0.1 °C
CN(C)CCN1C(=O)c2cccc3cc(NC(=O)CNCCCCNCCCN)cc(c23)C1=O	–	–	–	–	6.42 µM	6.42 µM	6.42 µM	6.42 µM	6.42 µM	6.42 µM	–
CN(C)CCNC(=O)Nc1cc2c3c(cccc3c1)C(=O)N(CCN(C)C)C2=O	–	–	–	–	8.62 µM	> 50 µM	8.62 µM	> 50 µM	8.62 µM	> 50 µM	–
CN(C)CCN1C(=O)c2cccc3cc(NC(=O)CNC(=O)C(Cl)Cl)cc(c23)C1=O	–	–	–	–	–	–	–	–	–	–	IC50 (HeLa): 21.5 µM; IC50 (A549): 4.7 µM; IC50 (K562 [4]): 8.5 µM
